# Reference: US20050054103A1, “Expansion of renewable stem cell populations using modulators of PI 3-kinase” (priority 2003, published 2005)
# Tests used:
# [1] = system: Normal human erythroid cells; assay: Human erythroid two-phase liquid culture; type: cell-based; conditions: TEPA 10 μM in second phase, after 14 days
# Description: Peripheral blood mononuclear cells, obtained from an adult normal donor, were cultured in the erythroid two-phase liquid culture system (23-25). The second phase of the culture was supplemented either without or with 10 μM of TEPA. Cultures were analyze for total cells and hemoglobin-containing [benzidine positive (B^+)] cells after 14 days.
# Human erythroid cell cultures: Normal human erythroid cells were grown according to the two-phase liquid culture procedure, essentially as described in references 67-70. In the first phase, peripheral blood mononuclear cells were incubated in the presence of early growth factors for 5-7 days. In the second phase, these factors were replaced by the erythroid specific proliferation/differentiation factor, erythropoietin.
# The cultures were supplemented with TEPA at the initiation of the second phase. The total cell number and the percentage of hemoglobin-containing cells were determined after 14 days.
# Hepatocytes = assay: Hepatocyte cultures ex-vivo expanded with TEPA; type: cell-based, BALB/c mice; conditions: 15 μg/ml TEPA, five weeks
# Description: Hepatocytes: Livers were dissected from anesthetized BALB/c mice with sterile tools and immersed into F12 culture medium (Biological Industries, Kibbutz Bet Ha'Emek, Israel). The livers were washed three times with 3% BSA/PBS buffer and minced into small pieces with seizures. Following three washes with 3% BSA/PBS the liver tissue pieces were incubated for 30 minutes with 0.05% collagenase at 37° C. with continuos shaking under 5% CO2 atmosphere. The digested liver tissue pieces were than mashed by pressing through a fine mesh strainer. After three washes with 3% BSA/PBS the liver cells were seeded into F12 culture medium enriched with: 15 mM HEPES buffer, […], 10 mM sodium bicarbonate, 0.5 u/ml insulin, 7.5 ng/ml hydrocortisone and with or without 15 μg/ml of TEPA and incubated at 37° C. in a 5% CO2 atmosphere. After overnight incubation the medium was removed and the cells were supplemented with fresh enriched F12 medium as described above with or without 15 μg/ml of TEPA. Hepatocytes were incubated in 35 mm dishes for several weeks with enriched F12 culture medium with or without 15 μg/ml TEPA at 37° C. under 5% CO2 atmosphere. Cell culture medium was replaced every week with a fresh medium.
smiles,measurement,setting,value
"NCCNCCNCCNCCN [TEPA, tetraethylenepentamine]",hemoglobin-containing cells,[1],sharp decrease
same,total number of cells,[1],decreased only slightly
same,cell content of hepatocyte cultures,Hepatocytes,contained many dividing and undifferentiated cells
